Source: patent publication US6682927B2, “Methods and apparatus for the high through-put detection of binding interactions in vivo” (priority 1998, dated 2004)

Tests used:
[1] = system: RBL cells expressing PKCγ-YFP; assay: E-SCAM measurement of plasma membrane translocation of PKCγ-YFP; format: cell-based, Rat; conditions: ionomycin-induced PKCγ translocation in RBL cells; data not shown
From the text: FIG. 11. E-SCAM measurement of plasma membrane translocation events in more than a thousand cells. (A) Schematic view of the Evanescent wave Single Cell Array Macroscope (E-SCAM) in which the excitation light is directly coupled into the coverslip. (B) Low magnification images of RBL, cells expressing PKCγ-YFP before (left) and after stimulation with calcium ionophore (right). […] (Bar=1 mm). (C and D) Statistical analysis of receptor-triggered fluorescence intensity changes measured in RBL-cells expressing PKCγ-YFP after stimulation by cross-linking of their FcεRI receptors with the antigen DNP-BSA. (C) Typical time courses. (D) Histogram of the maximum amplitude of fluorescence intensity changes that was measured in each of more than 1000 cells visible in the field of view.
Construction of an Evanescent wave Single Cell Array Macroscope (E-SCAM). A wide-field microscope (macroscope) was designed in similar fashion to the higher magnification system described above. Two Rodenstock 100 mm Heligon lenses were mounted below the coverslip in opposite directions to obtain a combined objective and ocular with 1:1 magnification. The second lens projected the sample image onto a 5 MHz Micromax camera made commercially available from Roper Scientific of Trenton, N.J. This lens combination has high spatial and chromatic accuracy as well as a numerical aperture of NA˜0.3 (F/1.6). […]

[2] = system: cells expressing the plasma membrane localized GFP construct; assay: Control: fluorescence of cells expressing plasma membrane localized GFP; format: cell-based; conditions: ionomycin and phorbol ester added together
Procedure: FIG. 6. Evanescent wave excitation of fluorescent cytosolic and membrane proteins in adherent cells. (A) Schematic view of the microscope setup (see Materials and Methods section for description). (B) Fluorescent images of RBL cells that express cytosolic GFP (left; representative of 6 experiments) or plasma membrane targeted GFP (right, n=3). A myristoylation/palmitoylation sequence was fused to the N-terminal end of GFP for membrane targeting.
Fluorescent images were recorded from RBL-cells that had similar levels of expressed cytosolic or plasma membrane localized GFP constructs. The targeting of GFP to the plasma membrane utilized a fusion of the 12 amino acid palmitoylation/myristoylation plasma membrane targeting sequence from Lyn to the N-terminus of GFP (Teruel, et al. (1999) J. Neuroscience Methods 93: 37-48). The fluorescence intensity of cells with expressed cytosolic GFP (FIG. 6B) was typically 3 to 10-fold lower than the intensity of cells with expressed plasma membrane targeted GFP (FIG. 6C).
Analysis of Receptor Triggered Translocation of PKCγ-GFP in Thin Cells. […] The changes in fluorescence intensity could be followed in a series of several hundred images. […] Similar receptor-triggered fluorescence intensity oscillations could be observed in RBL cells (FIG. 7D) and 3T3 fibroblasts (data not shown).

[3] = system: hippocampal astrocytes expressing PKCγ-GFP; assay: Plasma membrane translocation of PKCγ-GFP by evanescent wave excitation; format: cell-based; conditions: glutamate 100 μM, ionomycin 2 μM
Procedure: FIG. 7. Plasma membrane translocation of PKCγ measured in hippocampal astrocytes by evanescent wave excitation. (A) Time series of fluorescent images of cultured hippocampal astrocytes expressing PKCγ-GFP stimulated with glutamate (100 μM; n=47). […] (B) The same experiment as in (A) but with calcium ionophore added (2 μM ionomycin; n=8). (Bars=10 μm in (A) and (B)). (C) Time course of PKCγ-GFP translocation measured as a fractional increase in fluorescence intensity and triggered by glutamate addition (100 μM, left) to a single astrocyte (left panel; n=47). (D) Similar periodic intensity changes in an RBL stably expressing PAF receptors following the addition of 100 nM PAF. Ionomycin was added at the end of each experiment (2 μM).
Cell Culturing. Rat basophilic leukemia 2H3 (RBL) cells were grown and plated as described by Oancea, et al. ((1997) J. Cell Biol. 140, 485-498) and Oancea, E. & Meyer, T. ((1998) Cell 95, 307-318). […]
Evanescent Wave Excitation and Fluorescence Microscopy (also termed Total Internal Reflection Fluorescence Microscopy or TIRFM). […] For glass coverslips, total internal reflection occurs for angles above 61° [θI,c=arcsin(n2/n1), calculated for a refractive index n1=1.52 for glass and n2=1.33 for water]. […] The space constant of the exponential decay I(z)=I(0)exp(−z/d) at a given angle can be calculated as described by Axelrod ((1981) J. Cell. Biol. 89, 141-145). […]

[4] = system: RBL-cells that express C1A-CaMKII and GFP-CaMKIIα; assay: In vivo protein-protein binding assay with inducible C1A translocation domain, evanescent wave excitation; format: cell-based, Rat; conditions: PDBu 1 μM, n=3
From the text: FIG. 10. Measuring protein-protein binding interactions of cytosolic proteins using an evanescent wave excitation. (A) Schematic representation of the in vivo binding assay. Binding between Proteins X and Y can be measured by conjugating Protein X with GFP and Protein Y with an inducible plasma membrane targeting domain. […] The C1A-domain from PKCγ was used as an inducible translocation domain. […] Typical translocation traces are shown.
Cloning of GFP-Fusion Constructs and Electroporation. […]
Measuring Protein-Protein Binding Interactions with High Signal-to-Background by Evanescent Wave Excitation. Protein-protein binding interactions have been measured previously by using a dual protein fusion strategy in which a protein Y was conjugated with an inducible plasma membrane translocation domain and a protein X with a GFP-tag (FIG. 5A, ref. 40). By inducing plasma membrane translocation of the non-fluorescent protein Y, the increase in plasma membrane fluorescence from the fluorescent protein X becomes a measure for the fraction of protein X that is bound to protein Y (since it is carried along with protein Y to the plasma membrane). […]
Evanescent wave excitation was now used in combination with the same assay. […] RNA transfection was used for quantitative expression of the two constructs (Teruel, et al. (1999) J. Neuroscience Methods 93: 37-48). […]

| SMILES | cell compliance of induced translocation [1] [%] | change in fluorescence intensity of plasma membrane localized GFP (control) [2] | change in fluorescence intensity (PKCγ-GFP translocation) [3] | plasma membrane fluorescence change, C1A-CaMKIIα and GFP-CaMKIIα [4] |
| --- | --- | --- | --- | --- |
| C[C@H](CCC(=O)O)C[C@H](C)C[C@H](C)C(=O)/C=C(\O)[C@H](C)C[C@H](C)C/C=C/[C@@H](C)[C@@H](O)[C@@H](C)[C@@H](O)C[C@@H]1CC[C@@](C)([C@H]2CC[C@@](C)([C@@H](C)O)O2)O1 [ionomycin] | 100 | no significant change in fluorescence intensity |  |  |
| N[C@@H](CCC(=O)O)C(=O)O [glutamate] |  |  | marked increase in fluorescence intensity |  |
| CCCC(=O)O[C@@H]1[C@@H](C)[C@@]2(O)[C@@H](C=C(CO)C[C@]3(O)C(=O)C(C)=C[C@@H]23)[C@@H]2C(C)(C)[C@]12OC(=O)CCC [PDBu] |  | no significant change in fluorescence intensity |  | marked increase in plasma membrane fluorescence |
